“And” between values parts separate entries of the source, which are not always exact repeats. Equal values may be shown once. Read-outs that look alike come from different tables or passages of the source.
Legend:
human recombinant GCL = human recombinant GCL (Homo sapiens (Human), UniProt P48506); test: GCL enzyme profiling assay (ADP-Glo luminescence); type: biochemical
Procedure, shortened: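 ADP-Glo luminescence readout; 5 nM enzyme preincubated 1 h at 22 °C with 0.6 mM ATP, then started with 1 mM glutamate and 1.2 mM α-aminobutyrate, stopped after 2 h. Buffer: HEPES pH 7.5, MgCl2, DTT, BSA, 0.2% F-127, 1% DMSO. IC50 from four-parameter logistic fit.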

RKN cells = test: RKN cell profiling assay (cell viability, CellTiter-Glo); type: cell-based; details: read-out: Cell Killing EC50
Procedure, shortened: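 Cells seeded at 1,000/well in F-12 with 10% FBS, left to adhere 24 h, then compound-treated for 96 h at 0.5% final DMSO. Viability by CellTiter-Glo luminescence; EC50 from four-parameter logistic fit. Ferroptosis rescue runs included 1.5 μM ferrostatin-1 added at seeding.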

[1] = human recombinant GCL 5 nM, 1 h preincubation with ATP, read-out: GCL IC50
[2] = human recombinant GCL, ADP-Glo, read-out: GCL IC50

Chain of human recombinant GCL (P48506 whole entry): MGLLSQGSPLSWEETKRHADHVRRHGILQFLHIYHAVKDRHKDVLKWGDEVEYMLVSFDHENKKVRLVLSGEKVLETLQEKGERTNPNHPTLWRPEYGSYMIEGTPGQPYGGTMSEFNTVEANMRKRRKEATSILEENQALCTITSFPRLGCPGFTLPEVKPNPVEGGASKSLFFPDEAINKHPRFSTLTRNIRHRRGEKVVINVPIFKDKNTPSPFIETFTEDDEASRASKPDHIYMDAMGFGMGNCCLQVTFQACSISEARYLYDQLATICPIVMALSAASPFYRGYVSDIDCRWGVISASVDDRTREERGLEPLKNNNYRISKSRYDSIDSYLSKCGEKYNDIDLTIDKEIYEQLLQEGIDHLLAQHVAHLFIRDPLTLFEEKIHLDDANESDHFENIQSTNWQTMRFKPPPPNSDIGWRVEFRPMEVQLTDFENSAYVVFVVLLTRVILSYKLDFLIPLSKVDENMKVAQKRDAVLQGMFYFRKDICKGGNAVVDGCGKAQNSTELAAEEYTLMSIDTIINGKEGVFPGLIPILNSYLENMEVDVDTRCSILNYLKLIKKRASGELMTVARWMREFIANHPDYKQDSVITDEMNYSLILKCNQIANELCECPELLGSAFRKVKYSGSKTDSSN

Structure (SMILES)	IC50 (human recombinant GCL; [1])	EC50 (RKN cells; 96 h, 96 h exposure) [µM]	IC50 (human recombinant GCL; human recombinant GCL 5 nM, 1 h preincubation with ATP, read-out: GCL IC50 (mM), individual values in parentheses)	IC50 (human recombinant GCL; [2]) [mM]	EC50 (RKN cells; cell viability) [µM]
CN(C)C(=O)C1(CCS(=N)(=O)CC[C@H](N)C(=O)O)CCC1 (some centres unmarked) [Compound 193]	0.02 to 2 mM	≥ 1000			
N=S(=O)(CC[C@H](N)C(=O)O)CCC1(C(=O)N2CCCC2)CCC1 (some centres unmarked) [Compound 194]	0.02 to 2 mM	≥ 1000			
N=S(=O)(CC[C@H](N)C(=O)O)CCC1(C(=O)Nc2ccccc2)CCC1 (some centres unmarked) [Compound 195]	0.02 to 2 mM	≥ 1000			
N=S(=O)(CC[C@H](N)C(=O)O)CCC1(C(=O)N2CCC2)CCC1 (some centres unmarked) [Compound 196]	0.02 to 2 mM	≥ 1000			
CCCCS(=O)(CC[C@H](N)C(=O)OC)=NC(C)=O (stereo partly drawn) [Compound 197, (2S)-methyl 4-(N-acetylbutylsulfonimidoyl)-2-aminobutanoate]	> 2 mM	≥ 1000			
CCCCS(=N)(=O)CC[C@H](NC(=O)OC)C(=O)OC (stereo partly drawn) [Compound 198, (2S)-methyl 4-(butylsulfonimidoyl)-2-((methoxycarbonyl)amino)butanoate]	> 2 mM	≥ 1000			
CCCCS(=N)(=O)CC[C@H](N)C#N (stereo partly drawn) [Compound 199, (2S)-2-amino-4-(butylsulfonimidoyl)butanenitrile]	> 2 mM	≥ 1000			
CC(C)(C)CCS1(=O)=NC(=O)[C@@H](N)CC1 (stereo partly drawn) [Compound 201, (1S,4R)-4-amino-1-(3,3-dimethylbutyl)-5,6-dihydro-1,2-thiazin-3 (4H)-one 1-oxide]	0.02 to 2 mM	< 1000			
N[C@H]1CCS(=O)(CCCC(F)(F)F)=NC1=O (stereo partly drawn) [Compound 202, (1S,4R)-4-amino-1-(4,4,4-trifluorobutyl)-5,6-dihydro-1,2-thiazin-3 (4H)-one 1-oxide]	0.02 to 2 mM	< 1000			
N=S(=O)(CCCC(F)(F)F)CC[C@H](N)c1ncon1 (stereo partly drawn) [Compound 203, (1S)-1-(1,2,4-oxadiazol-3-yl)-3-(4,4,4-trifluorobutylsulfonimidoyl)propan-1-amine]	> 2 mM	≥ 1000			
N=S(=O)(CCCC(F)(F)F)CC[C@H](N)c1ncno1 (stereo partly drawn) [Compound 204, (1S)-1-(1,2,4-oxadiazol-5-yl)-3-(4,4,4-trifluorobutylsulfonimidoyl)propan-1-amine]	> 2 mM	≥ 1000			
N=S(=O)(CCCC(F)(F)F)CC[C@H](N)c1ncn[nH]1 (stereo partly drawn) [Compound 205, (1S)-1-(1H-1,2,4-triazol-5-yl)-3-(4,4,4-trifluorobutylsulfonimidoyl)propan-1-amine]	≤ 0.02 mM and 0.02 to 2 mM	≥ 1000			
N=S(=O)(CC[C@H](N)C(=O)O)CCC1(NC(N)=O)CCC1 (stereo partly drawn) [Compound 206, (2S)-2-amino-4-(2-(1-ureidocyclobutyl)ethylsulfonimidoyl)butanoic acid]	0.02 to 2 mM	< 1000			
CC(C)(CCS(=N)(=O)CC[C@H](N)C(=O)O)n1cc(-c2ccccc2)nn1 (stereo partly drawn) [Compound 207, (2S)-2-amino-4-(3-methyl-3-(4-phenyl-1H-1,2,3-triazol-1-yl)butylsulfonimidoyl)butanoic acid]	0.02 to 2 mM	≥ 1000			
CC(C)(CCS(=N)(=O)CC[C@H](N)C(=O)O)n1ncc(-c2ccccc2)n1 (stereo partly drawn) [Compound 208, (2S)-2-amino-4-(3-methyl-3-(4-phenyl-2H-1,2,3-triazol-2-yl)butylsulfonimidoyl)butanoic acid]	≤ 0.02 mM and 0.02 to 2 mM	< 1000	0.0204 mM and 0.02 mM		
N=S(=O)(CC[C@H](N)C(=O)O)CCC(O)(c1ccccc1Cl)C(F)(F)F (stereo partly drawn) [Compound 209, (2S)-2-amino-4-(3-(2-chlorophenyl)-4,4,4-trifluoro-3-hydroxybutylsulfonimidoyl)butanoic acid]	≤ 0.02 mM	< 1000			
N=S(=O)(CCC(N)C(F)(F)F)CC[C@H](N)C(=O)O (stereo partly drawn) [Compound 210, (2S)-2-amino-4-(3-amino-4,4,4-trifluorobutylsulfonimidoyl)butanoic acid]	0.02 to 2 mM	< 1000			
N=S(=O)(CCC(c1ccc(-c2ccccc2)cc1)C(F)(F)F)CC[C@H](N)C(=O)O (stereo partly drawn) [Compound 211, (2S)-4-(3-([1,1′-biphenyl]-4-yl)-4,4,4-trifluorobutylsulfonimidoyl)-2-aminobutanoic acid]	≤ 0.02 mM	< 1000			
N=S(=O)(CCC(c1ccc(-c2ccccc2Cl)cc1)C(F)(F)F)CC[C@H](N)C(=O)O (stereo partly drawn) [Compound 212, (2S)-2-amino-4-(3-(2′-chloro-[1,1′-biphenyl]-4-yl)-4,4,4-trifluorobutylsulfonimidoyl)butanoic acid]	≤ 0.02 mM	< 1000			
N=S(=O)(CCC(c1ccc(CCC(F)(F)F)cc1)C(F)(F)F)CC[C@H](N)C(=O)O (stereo partly drawn) [Compound 213, (2S)-2-amino-4-(4,4,4-trifluoro-3-(4-(3,3,3-trifluoropropyl)phenyl)butylsulfonimidoyl)butanoic acid]				≤ 0.02	≥ 1000
N#CC1CC=C(c2ccc(C(CCS(=N)(=O)CC[C@H](N)C(=O)O)C(F)(F)F)cc2)CC1 (stereo partly drawn) [Compound 214, (2S)-2-amino-4-(3-(4′-cyano-2′,3′,4′,5′-tetrahydro-[1,1′-biphenyl]-4-yl)-4,4,4-trifluorobutylsulfonimidoyl)butanoic acid]				≤ 0.02	≥ 1000
N=S(=O)(CCC(c1ccc(C#Cc2ccccc2)cc1)C(F)(F)F)CC[C@H](N)C(=O)O (stereo partly drawn) [Compound 215, (2S)-2-amino-4-(4,4,4-trifluoro-3-(4-(phenylethynyl)phenyl)butylsulfonimidoyl)butanoic acid]				≤ 0.02	< 1000
N=S(=O)(CCC(c1ccc(S(=O)(=O)c2ccccc2)cc1)C(F)(F)F)CC[C@H](N)C(=O)O (stereo partly drawn) [Compound 216, (2S)-2-amino-4-(4,4,4-trifluoro-3-(4-(phenylsulfonyl)phenyl)butylsulfonimidoyl) butanoic acid]				0.02 to 2	≥ 1000

Source: patent publication US20260034094A1, “COMPOSITIONS AND METHODS FOR INDUCING FERROPTOSIS” (Kojin Therapeutics, Inc., priority 2022, published 2026)
